Test results from US20090325874A1, “Inhibition of inositol 1,4,5-triphosphate receptor calcium channel/cytochrome c interactions and uses thereof” (priority 2008, published 2009).

Key:
[1] = tested on: caspase-3 activation in Jurkat cells co-cultured with SW620 cells; assay: Caspase-3 like (DEVDase) activity in Jurkat cells co-cultured with SW620 cells; type: cell-based, human; details: for Jurkat cell (lymphocyte) apoptosis induced by co-culture with SW620 cells: summary statement, co-culture with Fas ligand-expressing SW620 colon cancer cells; for caspase-3 activation in Jurkat cells: 24 h co-culture with SW620
Experimental: (§1) Jurkat T-lymphoma (clone E6-1) and SW620 colon adenocarcinoma cells were purchased and cultured according to the guidelines of American Type Culture Collection (ATCC, Manassas, Va.). SW620 cells grow as adherent monolayers, whereas Jurkat cells grow in suspension. Jurkat cells were co-cultured with SW620 cells by exchanging the culture medium of SW620 cells (80 percent confluent in a 10 cm dish) with 10 ml Jurkat medium containing 1×10^6 Jurkat cells. Co-cultures were incubated for 24 h, after which cell death or caspase activity was determined in Jurkat cells. Pre-loading 1,2-bis(o-aminophenoxy)ethane-N,N,N′,N′-tetraacetic acid (BAPTA) or B-IP3RCYT into Jurkat cells was performed for 30 min at room temperature. Free BAPTA-AM or B-IP3RCYT was removed by media exchange prior to addition to SW620 cells. XestC was similarly pre-incubated with Jurkat cells prior to co-culturing, and remained in the culture medium for the duration of the co-culture experiment.
Caspase activity and cell death were determined specifically in Jurkat cells by removing the medium containing the Jurkat cells into a fresh tube. An additional rinse with culture medium was used to fully recover the Jurkat cells. Adherent SW620 cells remained attached to the culture plate after this rinse as determined by light microscopy. Jurkat cells were pelleted by centrifugation at 1000 g and cell death was determined by propidium iodide staining as described (12). Fluorometric determination of DEVDase (caspase-3 like) activity was performed on lysates prepared from Jurkat cells as described (12, 15).

[2] = tested on: Jurkat cells co-cultured with SW620 cells; assay: Jurkat cell death by propidium iodide staining after co-culture with SW620 cells; type: cell-based, human; set-up: dose or concentration left out as unconfirmed; details: XestC pre-incubation, 24 h co-culture
Experimental: as §1
Caspase activity and cell death were determined specifically in Jurkat cells by removing the medium containing the Jurkat cells into a fresh tube. […] Adherent SW620 cells remained attached to the culture plate after this rinse as determined by light microscopy. Jurkat cells were pelleted by centrifugation at 1000 g and cell death was determined by propidium iodide staining as described (12). […]

**Q.** `O=C(O)CN(CC(=O)O)c1ccccc1OCCOc1ccccc1N(CC(=O)O)CC(=O)O` [BAPTA, 1,2-bis(o-aminophenoxy)ethane-N,N,N′,N′-tetraacetic acid] was tested. Which “Jurkat cell (lymphocyte) apoptosis induced by co-culture with SW620 cells” value [1] did it give?
**A.** dose-dependently inhibited Jurkat cell apoptosis

**Q.** `CC(=O)OCOC(=O)CN(CC(=O)OCOC(C)=O)c1ccccc1OCCOc1ccccc1N(CC(=O)OCOC(C)=O)CC(=O)OCOC(C)=O` [BAPTA-AM, aminomethoxy ester form of BAPTA (1,2-bis(o-aminophenoxy)ethane-N,N,N′,N′-tetraacetic acid] was tested. Which “caspase-3 activation in Jurkat cells” value ([1]; 100 and 500 nM BAPTA-AM pre-loaded 30 min, p<0.05 vs no pre-treatment) did it give?
**A.** Significant attenuation of caspase-3 activation

**Q.** For `C1CCC[C@H]2CCCN3CC[C@@H](CCCCCC[C@@H]4CCCN5CC[C@@H](CC1)O[C@@H]45)O[C@@H]23` [XestC, Xestospongin C], which “Jurkat cell death induced by co-culture with SW620 cells” value [2] is on record?
**A.** potently blocked Jurkat cell death

**Q.** And the “caspase-3 activation in Jurkat cells” value ([1]; XestC 1 to 20 micromolar, pre-incubated and kept in medium)?
**A.** inhibited caspase-3 activation

**Q.** What about the “Jurkat cell (lymphocyte) apoptosis induced by co-culture with SW620 cells” value [1] of the same molecule?
**A.** dose-dependently inhibited Jurkat cell apoptosis
